The source of these data is PubChem BioAssay AID1508612.

The data set in a line: passive permeability, PAMPA, ADME assay (AID 1508612). Particulars: pH 7.4, 30.0 min, 50.0 µM. (In general: PAMPA measures passive passage across an artificial lipid membrane.)

As a reminder, the Papp is a coefficient for how fast a substance crosses the barrier. Higher therefore signals fast passage. `CC(C)(C)C1CCc2[nH]c3ccccc3c(=O)c2C1` (stereo not drawn): the Papp turned out to be 356 ×10⁻⁶ cm/s. The value for `O=C(Nc1nc(-c2ccccc2)cs1)c1ccncc1NS(=O)(=O)c1ccccc1F` was 468 ×10⁻⁶ cm/s; that for `CC(=O)c1sc(NC(=O)c2ccco2)nc1-c1ccccc1` was 752 ×10⁻⁶ cm/s; that for `O=C1Nc2ccccc2/C1=C\c1ccc(O)cc1` was 755 ×10⁻⁶ cm/s.

`CC(=O)OCCN1C(=O)c2c(C)nc3ccc(S(=O)(=O)N4CCOCC4)cc3c2C1=O` came in with a Papp of 665 ×10⁻⁶ cm/s. `CSc1ccc(-c2cnc(N3CCC(C(N)=O)CC3)s2)cc1` came in with an apparent permeability coefficient (Papp) of 58.9 ×10⁻⁶ cm/s. With `O=c1[nH]c(N2CCOCC2)nc2c1CCN(Cc1ccc(Cl)cc1F)CC2` the figure was over 1000 ×10⁻⁶ cm/s; with `O=C(Nc1ccc2oc(-c3cccnc3)nc2c1)c1ccc(-c2cccc(Cl)c2)o1`, 310 ×10⁻⁶ cm/s; with `Cc1ccc(-c2[nH]n3c(=O)c4c(nc3c2C)CCCC4)cc1`, 506 ×10⁻⁶ cm/s.

`C[C@]1(CO)CN(c2cc(C(=O)Nc3ccc4c(c3)-c3c(c(C(N)=O)nn3-c3ccc(F)cc3)CC4)c(Cl)cn2)C[C@@]1(C)CO` registered a Papp of 18.5 ×10⁻⁶ cm/s. The value for `CCOc1ccc(CCNC(=O)c2cc3c(s2)CCC3)cc1OCC` was over 1000 ×10⁻⁶ cm/s. The value for `CCOC(=O)c1[nH]c(C)c(CCC(=O)N2CCN(c3cc(C)ccc3C)CC2)c1C` was over 1000 ×10⁻⁶ cm/s.

`Cc1ccc(S(=O)(=O)Nc2ccccc2C(=O)Nc2nc(-c3ccccc3)co2)cc1` returned a Papp of 358 ×10⁻⁶ cm/s. With `c1c[nH]c(C2CCN(c3ncc(-c4ccc5c(c4)OCCCO5)s3)CC2)n1` the figure was over 1000 ×10⁻⁶ cm/s; with `CC(C)c1ccccc1-c1nc2c(c(NCc3ccc(-c4cccnc4)cc3)n1)CNC2`, 478 ×10⁻⁶ cm/s. `CCOc1ccc(CCNC(=O)c2cc3ccncc3n2Cc2cccc(C)c2)cc1OCC`: the Papp was 20.6 ×10⁻⁶ cm/s. The value for `Cc1ccc(C(=O)N2CCc3c(nc4cc(-c5ccccc5)[nH]n4c3=O)C2)cn1` was under 1 ×10⁻⁶ cm/s. The value for `Fc1cccc(F)c1Nc1nc(-c2ccncc2)nc2ccccc12` was over 1000 ×10⁻⁶ cm/s. With `O=C(O)c1ccnc2cc(C(OCC3CCC(F)(F)CC3)c3ccccc3Cl)[nH]c12` (stereo not drawn) the figure was 75.6 ×10⁻⁶ cm/s; with `Cn1c(=O)c2c(nc(Cl)n2Cc2ccc(Cl)cc2)n(C)c1=O`, over 1000 ×10⁻⁶ cm/s; with `COCCN1CCNc2nc(COc3ccc(C(C)C)cc3)n(Cc3ccccc3)c2C1=O`, 12 ×10⁻⁶ cm/s.

`COc1ccc2oc(NC3=NC(c4[nH]ncc4Cl)C4=C(CCCC4=O)N3)nc2c1` (stereo not drawn) came in with an apparent permeability (Papp) of 706 ×10⁻⁶ cm/s. The value for `CCOC(=O)c1ccc(-n2cnc3cc(C(=O)N4CCCCC4)ccc32)cc1` was over 1000 ×10⁻⁶ cm/s; that for `CCOc1ccc(CN2C(=O)c3ccccc3Sc3ccc(C(=O)NC4CCC(C)CC4)cc32)cc1` (stereo not drawn) was under 1 ×10⁻⁶ cm/s; that for `Cc1ccc(CSCc2ccc(C(=O)NC3CC3)o2)cc1` was 833 ×10⁻⁶ cm/s. As for `FC(F)(F)c1cccc(N2CCN(C(=S)Nc3ccccn3)CC2)c1`, the Papp is over 1000 ×10⁻⁶ cm/s. On to `COc1ccc(CNC(=O)c2cnc3ccccc3n2)cc1`, for which the Papp was over 1000 ×10⁻⁶ cm/s. With `CC(=O)c1c(C)c(C(=O)Nc2cccc([S+](=O)([O-])N(C)C)c2)n(C)c1C` the figure was 295 ×10⁻⁶ cm/s; with `O=C(NCc1cccc(C(F)(F)F)c1)c1ccc(CN2CCCCC2)cc1`, over 1000 ×10⁻⁶ cm/s; with `O=C(NC1CCCc2c1cnn2-c1ccc(F)cc1F)c1ccc(C2(C(F)(F)F)N=N2)cc1` (stereo not drawn), under 1 ×10⁻⁶ cm/s. The value for `Cc1ccc(S(=O)(=O)Nc2cc3c(cc2C(=O)Nc2nc(-c4ccccc4)cs2)OCO3)cc1` was 19.3 ×10⁻⁶ cm/s. The value for `Cc1cnc(-c2ccccc2C(F)F)nc1NCC1CN(c2cnccn2)C1` was over 1000 ×10⁻⁶ cm/s; that for `COc1ccc(NC(=O)c2[nH]c(C)c(C(C)=O)c2C)cc1S(=O)(=O)N1CCCCCC1` was 989 ×10⁻⁶ cm/s. Turning to `CC(=O)Nc1ccc(-c2csc(N3CCC(C(N)=O)CC3)n2)cc1`, the Papp is under 1 ×10⁻⁶ cm/s. With `CCCCN(C)C(=O)c1c(C)sc2ccn(CCC)c(=O)c12` the figure was 124 ×10⁻⁶ cm/s; with `O=C(NCCc1nc2ccccc2n1CCO)C1CCCCC1`, 85.4 ×10⁻⁶ cm/s. The value for `COc1ccc(-n2nc(C3CCCN(C(=O)c4ccccc4)C3)[nH]c2=O)cc1` (stereo not drawn) was under 1 ×10⁻⁶ cm/s; that for `Fc1ccc(Nc2ccnc(-c3ccncc3)n2)cc1F` was 371 ×10⁻⁶ cm/s.
